According to patent US20250049676A1, “ANTIMICROBIAL SYSTEM WITH INDOLE ALKALOID AND PHENOLIC ACID AND COMPOSITIONS COMPRISING THEM” (Conopco, Inc., d/b/a UNILEVER, priority 2021, published 2025):
Where two headings read alike, the source gives them in different places.

Key:
[1] = system: Aspergillus brasiliensis ATCC 16404; test: Liquid broth assay (MIC and checkerboard), Aspergillus brasiliensis; type: cell-based; conditions: for MIC: Aspergillus brasiliensis; for concentration needed in combination to achieve the inhibitory effect: gramine with syringic acid, concentration of the named component in the mixture
From the text: (§1) Naturally derived antimicrobial systems were made, as shown below by combining the indole alkaloid and phenolic acid. Two pools were set up and each pool contained 1 organism. The strains involved were Enterobacter gergoviae ATCC 33028 of the family Pluralibacter gergoviae, a Gram-negative and Aspergillus brasiliensis ATCC 16404. FIC test range was 16 times greater than the projected MIC for each sample.
(§2) The differing behaviors of inhibitory antimicrobials in isolation and mixtures have been widely explored using the concept of the Fractional Concentration and Fractional Inhibitory Concentration (FIC). See for instance JRW Lambert and R Lambert, J. Appl. Microbiol 95, 734 (2003); T. Jadavji, CG Prober and R Cheung, Antibacterial Agents and Chemotherapy 26, 91 (1984), and WO 2004/006876. MIC is the minimum inhibitory concentration a component prevents visible growth of a microbe. The FC and FIC parameters can be defined as follows:
(§3) FC (Component A)=Concentration of Component A tested in the mixture/MIC (Component A tested as a single active)
(§4) FIC (component a)=MIC (component a tested in the mixture)/MIC (component a tested as a single active)
(§5) The interactions between antimicrobials can be additive, synergistic or possibly antagonistic depending on whether the efficacy of the combination is equivalent to, greater than or less than that obtained for the same total concentration of the individual components when tested alone. These relationships can be expressed mathematically by summing the fractional MIC values for all the components present in the mixture to give the “fractional inhibitory index”:
(§6) Such that: • ΣFIC greater than 0.5 corresponds to indifferent, additive or antagonistic activity • ΣFIC less than or equal to 0.5 corresponds to synergistic activity
(§7) Liquid broth assays (MIC and checkerboard) were conducted to identify the minimum concentration(s) of individual and binary combinations of natural preservation materials. A modified methodology to ISO 20776-1:2006 was utilized for the screening as follows. Stock solutions of each preservation chemical at 200 ul/cell (or well) each and 100 ul of broth were created in separate 96-well plates. Each of the two-preservation chemical/broth mixes was then combined in a third 96 well plate at varying concentrations and then inoculated with 1-5×10^6 microorganisms and incubated at 30° C. for 24 hours, after which optical densities at OD600 nm were measured.

[2] = system: Enterobacter gergoviae ATCC 33028; test: Liquid broth assay (MIC and checkerboard), Enterobacter gergoviae; type: cell-based; conditions: for MIC: Pluralibacter gergoviae, read-out: minimal inhibitory concentration (MIC); for concentration needed in combination to achieve the inhibitory effect: gramine with syringic acid, concentration of the named component in the mixture
From the text: as §1, §2, §3, §4, §5, §6, §7

SMILES	MIC ([1]; ATCC16404, component by itself, MIC = <25% growth vs positive control, 30° C., 24 hours, OD600, read-out: MIC) [mg/mL]	concentration needed in combination to achieve the inhibitory effect [1]	MIC ([2]; ATCC33028, component by itself, MIC = <25% growth vs positive control, 30° C., 24 hours, OD600) [mg/mL]	concentration needed in combination to achieve the inhibitory effect [2] [mg/mL]	MIC ([1]; ATCC16404, 24 h) [mg/mL]	MIC ([2]; ATCC33028, 24 h) [mg/mL]
CN(C)Cc1c[nH]c2ccccc12 [Gramine, 1-(1H-Indol-3-yl)-N,N-dimethylmethanamine]	12.5	1,563 mg/ml	6.25	0.098		
COc1cc(C(=O)O)cc(OC)c1O [Syringic Acid, 4-Hydroxy-3,5-dimethoxybenzoic acid]		6.25 mg/mL		0.781	> 50	> 50
